Assays:
Details in all cases: 48 h
[1] = system: NOMO1; test: cell viability relative to DMSO control; higher = less cytotoxic
In short: (§1)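 NOMO1 or SEM (500 cells/well) or P12-Ichikawa (1000 cells/well) leukemia cells were adapted for at least four passages in each medium. They were seeded in 1536-well plates (5 μl) and pin-dosed with library compounds in DMSO over an 11-point threefold series, 47 μM to 0.79 nM. CellTiter-Glo One luminescence was read after 48 h at 37°C. Viability is the per-plate percentage relative to DMSO wells, with cell-free wells as background.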

[2] = system: P12-Ichikawa; test: as above
In short: as §1

[3] = system: SEM cells; test: as above
In short: as §1

[4] = system: NOMO1; test: AUC of viability dose-response curve (% viability x log10 dose units); higher = less sensitive
In short: (§2)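 Area under the curve was integrated by trapezoidal rule from a log-logistic fit of normalised viability, with curves exceeding full viability scaled and quality-control failures removed. The fit had four parameters over log10 doses. Viability came from CellTiter-Glo One luminescence, normalised per plate to DMSO and cell-free wells, after leukemia cells adapted to each medium (500 or 1000 cells/well, 1536-well plates) were exposed to library compounds in DMSO for 48 h at 37°C. The 11 threefold doses ran from 47 μM to 0.79 nM.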

[5] = system: P12-Ichikawa; test: as above
In short: as §2

[6] = system: SEM cells; test: as above
In short: as §2

NC1CCC(Nc2nc(Nc3ccc(C(=O)N4CCCCC4)cc3)c3ncn(-c4cccc(F)c4)c3n2)CC1 (centres undefined)
cell viability [%]
Details | [1] | [2] | [3]
HPLM + 10% dialyzed FBS, 0.000781 µM | 114 | 110 | 91.7
HPLM + 10% dialyzed FBS, 0.00234 µM | 110 | 112 | 94.8
HPLM + 10% dialyzed FBS, 0.00702 µM | 119 | 115 | 95.2
HPLM + 10% dialyzed FBS, 0.0211 µM | 121 | 117 | 96.6
HPLM + 10% dialyzed FBS, 0.0632 µM | 132 | 112 | 102
HPLM + 10% dialyzed FBS, 0.19 µM | 117 | 126 | 117
HPLM + 10% dialyzed FBS, 0.569 µM | 129 | 120 | 55
HPLM + 10% dialyzed FBS, 1.71 µM | 144 | 121 | 59.1
HPLM + 10% dialyzed FBS, 5.12 µM | 107 | 124 | 102
HPLM + 10% dialyzed FBS, 15.4 µM | 119 | 137 | 128
HPLM + 10% dialyzed FBS, 46.1 µM | 154 | 134 | 125
RPMI 5 mM glucose + 10% FBS, 0.000781 µM | 117 | 116 | 110
RPMI 5 mM glucose + 10% FBS, 0.00234 µM | 113 | 119 | 102
RPMI 5 mM glucose + 10% FBS, 0.00702 µM | 113 | 120 | 104
RPMI 5 mM glucose + 10% FBS, 0.0211 µM | 126 | 125 | 112
RPMI 5 mM glucose + 10% FBS, 0.0632 µM | 123 | 120 | 103
RPMI 5 mM glucose + 10% FBS, 0.19 µM | 124 | 128 | 124
RPMI 5 mM glucose + 10% FBS, 0.569 µM | 129 | 125 | 75.9
RPMI 5 mM glucose + 10% FBS, 1.71 µM | 107 | 124 | 62.9
RPMI 5 mM glucose + 10% FBS, 5.12 µM | 123 | 126 | 100
RPMI 5 mM glucose + 10% FBS, 15.4 µM | 128 | 139 | 110
RPMI 5 mM glucose + 10% FBS, 46.1 µM | 129 | 123 | 90.1
RPMI 5 mM glucose + 10% dialyzed FBS, 0.000781 µM | 118 | 112 | 99.6
RPMI 5 mM glucose + 10% dialyzed FBS, 0.00234 µM | 114 | 108 | 99
RPMI 5 mM glucose + 10% dialyzed FBS, 0.00702 µM | 133 | 120 | 100
RPMI 5 mM glucose + 10% dialyzed FBS, 0.0211 µM | 113 | 119 | 99.3
RPMI 5 mM glucose + 10% dialyzed FBS, 0.0632 µM | 121 | 121 | 106
RPMI 5 mM glucose + 10% dialyzed FBS, 0.19 µM | 127 | 123 | 113
RPMI 5 mM glucose + 10% dialyzed FBS, 0.569 µM | 127 | 118 | 64.6
RPMI 5 mM glucose + 10% dialyzed FBS, 1.71 µM | 121 | 118 | 41.9
RPMI 5 mM glucose + 10% dialyzed FBS, 5.12 µM | 125 | 129 | 98.6
RPMI 5 mM glucose + 10% dialyzed FBS, 15.4 µM | 119 | 139 | 98.6
RPMI 5 mM glucose + 10% dialyzed FBS, 46.1 µM | 123 | 130 | 88.9

AUC of viability dose-response curve
Details | [4] | [5] | [6]
HPLM + 10% dialyzed FBS | 437 | 429 | 436
RPMI 5 mM glucose + 10% FBS | 457 | 459 | 435
RPMI 5 mM glucose + 10% dialyzed FBS | 470 | 439 | 426

NC/1=N/C(=O)N(C[C@@H](CO)OC[P](O)(O)=O)/C=C1
cell viability [%]
Details | HPLM + 10% dialyzed FBS | RPMI 5 mM glucose + 10% FBS | RPMI 5 mM glucose + 10% dialyzed FBS
[1], 0.000781 µM | – | 125 | –
[1], 0.00234 µM | – | 149 | –
[1], 0.00702 µM | – | 123 | –
[1], 0.0211 µM | – | 122 | –
[1], 0.0632 µM | – | 136 | –
[1], 0.19 µM | – | 135 | –
[1], 0.569 µM | – | 128 | –
[1], 1.71 µM | – | 119 | –
[1], 5.12 µM | – | 122 | –
[1], 15.4 µM | – | 123 | –
[1], 46.1 µM | – | 128 | –
[3], 0.000781 µM | 115 | 106 | 136
[3], 0.00234 µM | 130 | 103 | 111
[3], 0.00702 µM | 120 | 117 | 115
[3], 0.0211 µM | 126 | 99.2 | 122
[3], 0.0632 µM | 139 | 111 | 131
[3], 0.19 µM | 126 | 113 | 106
[3], 0.569 µM | 120 | 98.2 | 128
[3], 1.71 µM | 125 | 95.2 | 123
[3], 5.12 µM | 106 | 100 | 101
[3], 15.4 µM | 105 | 97.7 | 111
[3], 46.1 µM | 94.6 | 69.7 | 100

AUC of viability dose-response curve
Details | [4] | [5] | [6]
HPLM + 10% dialyzed FBS | 421 | 458 | 455
RPMI 5 mM glucose + 10% FBS | 460 | 443 | 466
RPMI 5 mM glucose + 10% dialyzed FBS | 475 | 460 | 439

C[C@@H](NCc1cc2ccccc2[nH]1)c1cccc2ccccc12
cell viability [%]
Details | [1] | [2] | [3]
HPLM + 10% dialyzed FBS, 0.000781 µM | 88.3 | 88.5 | 80
HPLM + 10% dialyzed FBS, 0.00234 µM | 82.2 | 88.8 | 80.5
HPLM + 10% dialyzed FBS, 0.00702 µM | 91.6 | 93.4 | 86.2
HPLM + 10% dialyzed FBS, 0.0211 µM | 90.6 | 93 | 83.3
HPLM + 10% dialyzed FBS, 0.0632 µM | 94.6 | 86.8 | 77.7
HPLM + 10% dialyzed FBS, 0.19 µM | 95.5 | 97 | 107
HPLM + 10% dialyzed FBS, 0.569 µM | 91.9 | 95.5 | 89.7
HPLM + 10% dialyzed FBS, 1.71 µM | 95.2 | 97.7 | 95.9
HPLM + 10% dialyzed FBS, 5.12 µM | 97.1 | 90 | 89.2
HPLM + 10% dialyzed FBS, 15.4 µM | 92.3 | 93.4 | 89.7
HPLM + 10% dialyzed FBS, 46.1 µM | 100 | 90.2 | 41.9
RPMI 5 mM glucose + 10% FBS, 0.000781 µM | 84.3 | 89.1 | 84.1
RPMI 5 mM glucose + 10% FBS, 0.00234 µM | 87.5 | 90.2 | 86.6
RPMI 5 mM glucose + 10% FBS, 0.00702 µM | 80.1 | 87.5 | 87.2
RPMI 5 mM glucose + 10% FBS, 0.0211 µM | 86.1 | 95.9 | 90.3
RPMI 5 mM glucose + 10% FBS, 0.0632 µM | 90.5 | 92.9 | 74.5
RPMI 5 mM glucose + 10% FBS, 0.19 µM | 88.1 | 91.3 | 92.2
RPMI 5 mM glucose + 10% FBS, 0.569 µM | 97.4 | 94.8 | 97.5
RPMI 5 mM glucose + 10% FBS, 1.71 µM | 89.8 | 88 | 84.4
RPMI 5 mM glucose + 10% FBS, 5.12 µM | 95.5 | 89.8 | 92.9
RPMI 5 mM glucose + 10% FBS, 15.4 µM | 94.5 | 88.8 | 85.9
RPMI 5 mM glucose + 10% FBS, 46.1 µM | 91.8 | 92.2 | 39.5
RPMI 5 mM glucose + 10% dialyzed FBS, 0.000781 µM | 93.6 | 84.1 | 90
RPMI 5 mM glucose + 10% dialyzed FBS, 0.00234 µM | 89.8 | 86.6 | 84.1
RPMI 5 mM glucose + 10% dialyzed FBS, 0.00702 µM | 89 | 83.2 | 86
RPMI 5 mM glucose + 10% dialyzed FBS, 0.0211 µM | 87.8 | 91.4 | 82.9
RPMI 5 mM glucose + 10% dialyzed FBS, 0.0632 µM | 84.2 | 77.3 | 71.7
RPMI 5 mM glucose + 10% dialyzed FBS, 0.19 µM | 102 | 84.7 | 101
RPMI 5 mM glucose + 10% dialyzed FBS, 0.569 µM | 102 | 85.5 | 93.3
RPMI 5 mM glucose + 10% dialyzed FBS, 1.71 µM | 93.7 | 92.6 | 93
RPMI 5 mM glucose + 10% dialyzed FBS, 5.12 µM | 97 | 88.5 | 93.1
RPMI 5 mM glucose + 10% dialyzed FBS, 15.4 µM | 92.3 | 90.7 | 85.6
RPMI 5 mM glucose + 10% dialyzed FBS, 46.1 µM | 102 | 89.5 | 57.9

AUC of viability dose-response curve
Details | [4] | [5] | [6]
HPLM + 10% dialyzed FBS | 443 | 441 | 409
RPMI 5 mM glucose + 10% FBS | 428 | 434 | 406
RPMI 5 mM glucose + 10% dialyzed FBS | 449 | 414 | 413

— the supplement of paper PMC11451515
